Experimental data as given in PubChem BioAssay AID1963830 (Molecular Pharmacology Branch, DTP, NCI, 2024).

Tested on: 922993-354-T-J3-PDC complex spheroid viability
Test: Anticancer human tumor 922993-354-T-J3-PDC patient-derived endometrial carcinoma cell line growth inhibition [POLQ]
Conditions: for IC50: curve of first compound; for viability, T/C: stronger effect = lower value
Procedure, shortened: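 Three-cell-type spheroids modelling solid tumor plus stroma served as the readout system; POL inhibitors were tested individually and in combination, concentration ranges set by clinical Cmax where known.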

[1] = second compound 0.0316 µM, first compound 0.00316 µM
[2] = second compound 0.0316 µM, first compound 0.01 µM
[3] = second compound 0.0316 µM, first compound 0.0316 µM
[4] = second compound 0.0316 µM, first compound 0.1 µM
[5] = second compound 0.1 µM, first compound 0.00316 µM
[6] = second compound 0.1 µM, first compound 0.01 µM
[7] = second compound 0.1 µM, first compound 0.0316 µM
[8] = second compound 0.1 µM, first compound 0.1 µM
[9] = second compound 0.316 µM, first compound 0.00316 µM
[10] = second compound 0.316 µM, first compound 0.01 µM
[11] = second compound 0.316 µM, first compound 0.0316 µM
[12] = second compound 0.316 µM, first compound 0.1 µM
[13] = second compound 1 µM, first compound 0.00316 µM
[14] = second compound 1 µM, first compound 0.01 µM
[15] = second compound 1 µM, first compound 0.0316 µM
[16] = second compound 1 µM, first compound 0.1 µM
[17] = second compound 3.16 µM, first compound 0.00316 µM
[18] = second compound 3.16 µM, first compound 0.01 µM
[19] = second compound 3.16 µM, first compound 0.0316 µM
[20] = second compound 3.16 µM, first compound 0.1 µM
[21] = second compound 10 µM, first compound 0.00316 µM
[22] = second compound 10 µM, first compound 0.01 µM
[23] = second compound 10 µM, first compound 0.0316 µM
[24] = second compound 10 µM, first compound 0.1 µM
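Also: spheroids exposed to the agents for one week.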
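For viability, T/C in this document: 100% = DMSO vehicle control wells.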

Question: `C=CCn1c(=O)c2cnc(Nc3ccc(N4CCN(C)CC4)cc3)nc2n1-c1cccc(C(C)(C)O)n1` + Nc1ccc(C#CCN(C(=O)Cc2ncc(C(F)(F)F)cc2C(F)(F)F)c2ccc(F)cc2)nn1 was tested. Which IC50 (second compound 0.0316 µM) did it give?
Answer: The IC50 was > 1 µM.

Question: What about the IC50 (second compound 0.1 µM) of the same compound?
Answer: Its IC50 is > 1 µM.

Question: And the IC50 (second compound 0.316 µM)?
Answer: Its IC50 is > 1 µM.

Question: And the IC50 (second compound 1 µM)?
Answer: The IC50 was > 1 µM.

Question: What about the IC50 (second compound 3.16 µM) of the same compound?
Answer: The IC50 was > 1 µM.

Question: What about the IC50 (second compound 10 µM) of the same compound?
Answer: Its IC50 is > 1 µM.

Question: What about the viability, T/C [1] of the same compound?
Answer: Its viability, T/C is 105%.

Question: And the viability, T/C [2]?
Answer: The viability, T/C was 102%.

Question: And the viability, T/C [3]?
Answer: The viability, T/C was 101%.

Question: And the viability, T/C [4]?
Answer: Its viability, T/C is 100%.

Question: And the viability, T/C (second compound 0.0316 µM, first compound 0.316 µM)?
Answer: Its viability, T/C is 106%.

Question: What about the viability, T/C (second compound 0.0316 µM, first compound 1 µM) of the same compound?
Answer: Its viability, T/C is 98.5%.

Question: And the viability, T/C [5]?
Answer: Its viability, T/C is 107%.

Question: And the viability, T/C [6]?
Answer: Its viability, T/C is 98.5%.

Question: And the viability, T/C [7]?
Answer: The viability, T/C was 103%.

Question: And the viability, T/C [8]?
Answer: The viability, T/C was 99.6%.

Question: What about the viability, T/C (second compound 0.1 µM, first compound 0.316 µM) of the same compound?
Answer: The viability, T/C was 104%.

Question: And the viability, T/C (second compound 0.1 µM, first compound 1 µM)?
Answer: The viability, T/C was 101%.

Question: And the viability, T/C [9]?
Answer: The viability, T/C was 107%.

Question: And the viability, T/C [10]?
Answer: The viability, T/C was 101%.

Question: And the viability, T/C [11]?
Answer: Its viability, T/C is 97.5%.

Question: And the viability, T/C [12]?
Answer: The viability, T/C was 101%.

Question: What about the viability, T/C (second compound 0.316 µM, first compound 0.316 µM) of the same compound?
Answer: The viability, T/C was 99.6%.

Question: And the viability, T/C (second compound 0.316 µM, first compound 1 µM)?
Answer: Its viability, T/C is 100%.

Question: What about the viability, T/C [13] of the same compound?
Answer: Its viability, T/C is 103%.

Question: What about the viability, T/C [14] of the same compound?
Answer: Its viability, T/C is 99%.

Question: And the viability, T/C [15]?
Answer: The viability, T/C was 101%.

Question: And the viability, T/C [16]?
Answer: The viability, T/C was 97.6%.

Question: What about the viability, T/C (second compound 1 µM, first compound 0.316 µM) of the same compound?
Answer: The viability, T/C was 100%.

Question: And the viability, T/C (second compound 1 µM, first compound 1 µM)?
Answer: The viability, T/C was 100%.

Question: What about the viability, T/C [17] of the same compound?
Answer: Its viability, T/C is 100%.

Question: What about the viability, T/C [18] of the same compound?
Answer: Its viability, T/C is 98.8%.

Question: What about the viability, T/C [19] of the same compound?
Answer: The viability, T/C was 101%.

Question: And the viability, T/C [20]?
Answer: Its viability, T/C is 99.4%.

Question: What about the viability, T/C (second compound 3.16 µM, first compound 0.316 µM) of the same compound?
Answer: The viability, T/C was 101%.

Question: And the viability, T/C (second compound 3.16 µM, first compound 1 µM)?
Answer: The viability, T/C was 94.8%.

Question: What about the viability, T/C [21] of the same compound?
Answer: The viability, T/C was 96.3%.

Question: What about the viability, T/C [22] of the same compound?
Answer: The viability, T/C was 92.5%.

Question: What about the viability, T/C [23] of the same compound?
Answer: The viability, T/C was 94.5%.

Question: What about the viability, T/C [24] of the same compound?
Answer: The viability, T/C was 95.8%.

Question: And the viability, T/C (second compound 10 µM, first compound 0.316 µM)?
Answer: Its viability, T/C is 97%.

Question: And the viability, T/C (second compound 10 µM, first compound 1 µM)?
Answer: The viability, T/C was 55.2%.

Question: `CC[C@@]1(O)C(=O)OCc2c1cc1n(c2=O)Cc2cc3c(CN(C)C)c(O)ccc3nc2-1` + Nc1ccc(C#CCN(C(=O)Cc2ncc(C(F)(F)F)cc2C(F)(F)F)c2ccc(F)cc2)nn1 was tested. Which IC50 (second compound 0.0316 µM) did it give?
Answer: The IC50 was > 0.1 µM.

Question: What about the IC50 (second compound 0.1 µM) of the same compound?
Answer: Its IC50 is > 0.1 µM.

Question: And the IC50 (second compound 0.316 µM)?
Answer: The IC50 was > 0.1 µM.

Question: And the IC50 (second compound 1 µM)?
Answer: The IC50 was > 0.1 µM.

Question: And the IC50 (second compound 3.16 µM)?
Answer: The IC50 was > 0.1 µM.

Question: And the IC50 (second compound 10 µM)?
Answer: Its IC50 is 0.0547 µM.

Question: What about the viability, T/C (second compound 0.0316 µM, first compound 0.000316 µM) of the same compound?
Answer: The viability, T/C was 103%.

Question: And the viability, T/C (second compound 0.0316 µM, first compound 0.001 µM)?
Answer: Its viability, T/C is 105%.

Question: And the viability, T/C [1]?
Answer: Its viability, T/C is 99.4%.

Question: And the viability, T/C [2]?
Answer: The viability, T/C was 101%.

Question: And the viability, T/C [3]?
Answer: The viability, T/C was 100%.

Question: And the viability, T/C [4]?
Answer: Its viability, T/C is 89.5%.

Question: And the viability, T/C (second compound 0.1 µM, first compound 0.000316 µM)?
Answer: The viability, T/C was 102%.

Question: What about the viability, T/C (second compound 0.1 µM, first compound 0.001 µM) of the same compound?
Answer: The viability, T/C was 105%.

Question: What about the viability, T/C [5] of the same compound?
Answer: Its viability, T/C is 100%.

Question: And the viability, T/C [6]?
Answer: The viability, T/C was 102%.

Question: And the viability, T/C [7]?
Answer: The viability, T/C was 102%.

Question: What about the viability, T/C [8] of the same compound?
Answer: The viability, T/C was 87.2%.

Question: And the viability, T/C (second compound 0.316 µM, first compound 0.000316 µM)?
Answer: The viability, T/C was 105%.

Question: What about the viability, T/C (second compound 0.316 µM, first compound 0.001 µM) of the same compound?
Answer: The viability, T/C was 98.1%.

Question: And the viability, T/C [9]?
Answer: Its viability, T/C is 103%.

Question: And the viability, T/C [10]?
Answer: The viability, T/C was 98.9%.

Question: And the viability, T/C [11]?
Answer: The viability, T/C was 103%.

Question: And the viability, T/C [12]?
Answer: The viability, T/C was 81.1%.

Question: What about the viability, T/C (second compound 1 µM, first compound 0.000316 µM) of the same compound?
Answer: Its viability, T/C is 105%.

Question: And the viability, T/C (second compound 1 µM, first compound 0.001 µM)?
Answer: The viability, T/C was 103%.

Question: And the viability, T/C [13]?
Answer: The viability, T/C was 100%.

Question: What about the viability, T/C [14] of the same compound?
Answer: Its viability, T/C is 99.2%.

Question: What about the viability, T/C [15] of the same compound?
Answer: The viability, T/C was 96%.

Question: What about the viability, T/C [16] of the same compound?
Answer: The viability, T/C was 82.2%.

Question: What about the viability, T/C (second compound 3.16 µM, first compound 0.000316 µM) of the same compound?
Answer: The viability, T/C was 101%.

Question: And the viability, T/C (second compound 3.16 µM, first compound 0.001 µM)?
Answer: Its viability, T/C is 102%.

Question: And the viability, T/C [17]?
Answer: The viability, T/C was 103%.

Question: And the viability, T/C [18]?
Answer: The viability, T/C was 94.5%.

Question: What about the viability, T/C [19] of the same compound?
Answer: Its viability, T/C is 92.9%.

Question: What about the viability, T/C [20] of the same compound?
Answer: Its viability, T/C is 72.9%.

Question: What about the viability, T/C (second compound 10 µM, first compound 0.000316 µM) of the same compound?
Answer: Its viability, T/C is 100%.

Question: What about the viability, T/C (second compound 10 µM, first compound 0.001 µM) of the same compound?
Answer: Its viability, T/C is 91.3%.

Question: And the viability, T/C [21]?
Answer: Its viability, T/C is 97%.

Question: And the viability, T/C [22]?
Answer: The viability, T/C was 92.9%.

Question: And the viability, T/C [23]?
Answer: The viability, T/C was 71.8%.

Question: What about the viability, T/C [24] of the same compound?
Answer: Its viability, T/C is 25.9%.
